The term melting point denotes the temperature of the solid-liquid transition.

Each structure is given as a SMILES string. Like-named read-outs stand apart in the source and are kept apart here. Bounds are passed on as bounds.

The record followed here is US10952436B2, “Microbiocidal quinoline (thio)carboxamide derivatives” (SYNGENTA PARTICIPATIONS AG, priority 2017, dated 2021).

In series [1] the test system is Monographella nivalis (Microdochium nivale). In words: Monographella nivalis (Microdochium nivale)/Liquid Culture (Foot Rot Cereals). Format: cell-based. Conditions: read-out: control of Monographella nivalis.
For series [2], the system named is Fusarium culmorum. In words: microbe, parasite or virus in culture. Conditions: read-out: control of Fusarium culmorum. It is filed as cell-based.
For a further series, the system named is Gaeumannomyces graminis. In words: Gaeumannomyces graminis/Liquid Culture (Take-all of Cereals). Format: cell-based. Conditions: read-out: control of Gaeumannomyces graminis.
Series [3] deals with Glomerella lagenarium (Colletotrichum lagenarium). In words: Glomerella lagenarium (Colletotrichum lagenarium)/Liquid Culture (Anthracnose). Particulars: Colletotrichum orbiculare, read-out: control of Glomerella lagenarium. Format: cell-based.
In series [4] the test system is Magnaporthe grisea (Pyricularia oryzae). In words: microbe, parasite or virus in culture. Conditions: read-out: control of Magnaporthe grisea. Format: cell-based.
The test system of series [5] is Botryotinia fuckeliana (Botrytis cinerea). In words: Botryotinia fuckeliana (Botrytis cinerea)/Liquid Culture (Gray Mould). Format: cell-based. Conditions: read-out: control of Botryotinia fuckeliana.
For series [6], the system named is Fusarium culmorum. In words: whole plant or invertebrate. Format: in vivo. Conditions: in Triticum aestivum, read-out: control of Fusarium culmorum.
The subject of another series is Sclerotinia sclerotiorum. In words: Sclerotinia sclerotiorum/Liquid Culture (Cottony Rot). Conditions: read-out: control of Sclerotinia sclerotiorum.
Series [7] has as its system Magnaporthe grisea (Pyricularia oryzae). In words: whole plant or invertebrate. Conditions: foliar, read-out: control of Magnaporthe grisea. It is filed as in vivo.
Setting [8] is: 200 ppm, liquid culture, compared to untreated control, 4-5 days after application.
Where [9] appears, read: 200 ppm, liquid culture, compared to untreated control, 3-4 days after application.

Experimental for Sclerotinia sclerotiorum: Mycelia fragments of a newly grown liquid culture of the fungus are directly mixed into nutrient broth (Vogels broth). After placing a (DMSO) solution of test compound into a microtiter plate (96-well format) the nutrient broth containing the fungal material is added. The test plates are incubated at 24° C. and the inhibition of growth is determined photometrically 3-4 days after application.

`C=C(C)CC(C)(Cc1ccccc1)C(=O)Nc1cnc2c(F)cccc2c1C` (stereo not drawn) [Compound E-65, 2-benzyl-N-(8-fluoro-4-methyl-3-quinolyl)-2,4-dimethyl-pent-4-enamide]: the melting point fell in the range of 105 to 109 °C. Besides, the inhibition of growth at 200 ppm in [1] (setting [8]) is not below 80%. In the series on Fusarium culmorum [2], the inhibition of growth at 200 ppm was not below 80%. The inhibition of growth at 200 ppm in the series with Gaeumannomyces graminis (setting [8]) is not below 80%. For the same compound, the inhibition of growth at 200 ppm in series [3] (setting [9]) is not below 80%. Moreover, the inhibition of growth at 200 ppm in [4] was not below 80%. Further, the inhibition of growth at 200 ppm in series [5] (setting [9]) is not below 80%.

With `CC(F)(F)CC(C)(Cc1ccccc1)C(=O)Nc1cnc2c(F)cccc2c1` (stereo not drawn) [Compound E-68, 2-benzyl-4,4-difluoro-N-(8-fluoro-3-quinolyl)-2-methyl-pentanamide], the melting point was in the range of 156 to 158 °C. Moreover, in series [1] (setting [8]), the inhibition of growth at 200 ppm was not below 80%. In the series with Fusarium culmorum [2], the inhibition of growth at 200 ppm is not below 80%. Besides, the inhibition of growth at 200 ppm in the series with Gaeumannomyces graminis (setting [8]) was not below 80%. In addition, the inhibition of growth at 200 ppm in series [3] (setting [9]) is not below 80%. Besides, in series [4], the inhibition of growth at 200 ppm was not below 80%. The pest or weed control at 200 ppm in the series on Fusarium culmorum [6] is not below 80%. Besides, the inhibition of growth at 200 ppm in series [5] (setting [9]) was not below 80%.

Consider `C=C(F)CC(C)(Cc1ccccc1)C(=O)Nc1cnc2c(F)cccc2c1` (stereo not drawn) [Compound E-71, 2-benzyl-4-fluoro-N-(8-fluoro-3-quinolyl)-2-methyl-pent-4-enamide], for which the melting point lay within 132 to 134 °C. In addition, in series [1] (setting [8]), the inhibition of growth at 200 ppm was not below 80%. Further, in the series on Fusarium culmorum [2], the inhibition of growth at 200 ppm is not below 80%. Besides, the inhibition of growth at 200 ppm in the series with Gaeumannomyces graminis (setting [8]) is not below 80%. Moreover, the inhibition of growth at 200 ppm in series [3] (setting [9]) was not below 80%. Also, the inhibition of growth at 200 ppm in [4] is not below 80%. For the same compound, the pest or weed control at 200 ppm in the series on Fusarium culmorum [6] is not below 80%. Also, the inhibition of growth at 200 ppm in [5] (setting [9]) is not below 80%.

As for `C=C(C)CC(C)(Cc1ccccc1)C(=O)Nc1cnc2c(F)cccc2c1` (stereo not drawn) [Compound E-74, 2-benzyl-N-(8-fluoro-3-quinolyl)-2,4-dimethyl-pent-4-enamide], the melting point lay in the range of 147 to 149 °C. In addition, in [1], the inhibition of growth at 200 ppm is not below 80%. Further, the inhibition of growth at 200 ppm in the series with Fusarium culmorum [2] was not below 80%. The inhibition of growth at 200 ppm in the series with Gaeumannomyces graminis was not below 80%. For the same compound, in [3], the inhibition of growth at 200 ppm is not below 80%. Besides, the inhibition of growth at 20 ppm in the series with Sclerotinia sclerotiorum was not below 80%. The inhibition of growth at 200 ppm in series [4] is not below 80%. In the series with Fusarium culmorum [6], the pest or weed control at 200 ppm was not below 80%. The inhibition of growth at 200 ppm in series [5] was not below 80%.

`CC(Cc1ccccc1)(CC1CC1)C(=O)Nc1cnc2c(F)cccc2c1` (stereo not drawn) [Compound E-76, 2-benzyl-3-cyclopropyl-N-(8-fluoro-3-quinolyl)-2-methyl-propanamide]: the melting point fell in the range of 157 to 159 °C. Moreover, in series [1] (setting [8]), the inhibition of growth at 200 ppm is not below 80%. Moreover, in the series on Fusarium culmorum [2], the inhibition of growth at 200 ppm is not below 80%. For the same compound, the inhibition of growth at 200 ppm in the series on Gaeumannomyces graminis (setting [8]) is not below 80%. Besides, in series [7], the pest or weed control at 200 ppm is not below 80%. The inhibition of growth at 200 ppm in series [3] (setting [9]) was not below 80%. The inhibition of growth at 200 ppm in series [4] is not below 80%. For the same compound, the inhibition of growth at 200 ppm in [5] (setting [9]) is not below 80%.

For the compound `O=C(Nc1cnc2c(F)cccc2c1)C(Cc1ccccc1)CC(F)(F)F` (stereo not drawn) [Compound E-82, 2-benzyl-4,4,4-trifluoro-N-(8-fluoro-3-quinolyl)butanamide], the melting point lay within 161 to 164 °C. Besides, in series [1] (setting [8]), the inhibition of growth at 200 ppm was not below 80%. Moreover, the inhibition of growth at 200 ppm in the series on Fusarium culmorum [2] was not below 80%. The inhibition of growth at 200 ppm in the series on Gaeumannomyces graminis (setting [8]) is not below 80%. Besides, the inhibition of growth at 200 ppm in series [3] (setting [9]) is not below 80%. Moreover, the inhibition of growth at 200 ppm in series [4] is not below 80%. Also, in the series with Fusarium culmorum [6], the pest or weed control at 200 ppm was not below 80%. Moreover, in [5] (setting [9]), the inhibition of growth at 200 ppm was not below 80%.

Turning to `CC(C)CC(C)(Cc1ccccc1)C(=O)Nc1cnc2c(F)cccc2c1` (stereo not drawn) [Compound E-87, 2-benzyl-N-(8-fluoro-3-quinolyl)-2,4-dimethyl-pentanamide], the melting point is 140 to 142 °C. The inhibition of growth at 200 ppm in series [1] (setting [8]) is not below 80%. In addition, the inhibition of growth at 200 ppm in the series with Fusarium culmorum [2] was not below 80%. Moreover, the inhibition of growth at 200 ppm in the series on Gaeumannomyces graminis (setting [8]) was not below 80%. Also, in series [3] (setting [9]), the inhibition of growth at 200 ppm is not below 80%. Further, the inhibition of growth at 20 ppm with Sclerotinia sclerotiorum is not below 80%. Moreover, the inhibition of growth at 200 ppm in [4] was not below 80%. Moreover, the pest or weed control at 200 ppm in the series on Fusarium culmorum [6] was not below 80%. In addition, in series [5] (setting [9]), the inhibition of growth at 200 ppm was not below 80%.
